Reference: US20110009496A1, “RESVERATROL FORMULATIONS” (SIRTRIS PHARMACEUTICAS, INC., priority 2008, published 2011)

Experiments:
[1] = test system: HDAC; settings: in vitro or in vivo; cited from earlier work
[2] = molecular target: cytochrome oxidase (Complex IV) (Homo sapiens, UniProt P00395); settings: cited from earlier work
[3] = molecular target: Sir2 (Saccharomyces cerevisiae, UniProt P06700); settings: cited from earlier work
[4] = test system: retinal ganglion cells; settings: treated animals; cited from earlier work
[5] = Dilution of liquid resveratrol formulations with purified water (precipitation); format: physicochemical; settings: DS dissolved in Gelucire 44/14 at 100 mg/g
Procedure: A liquid formulation was prepared by dissolving resveratrol (drug substance, DS) and monoacyl phospholipid in a mixture of PEG 300 and propyleneglycol. The ratio between the DS and phospholipid was 1/12 w/w in PEG 300/propyleneglycol 1/1 w/was solvent mixture. The formulation, which has a 5% drug load, was clear after dilution in purified water for more than 4 hours. Starting from Formulation 13, the drug load was increased to 10% using the same 1/1 w/w ratio of Vit E TPGS/DS and replacing propyleneglycol with Labrasol™. Upon one-fold dilution with water a slight DS precipitation was observed. […] After a few hours, some oil droplets were visible on the surface of the water phase. To further improve Formulation 11, the use of the two lipids Gelucire™ 44/14 and Labrasol™ were explored as main components in the formulations. […] The DS precipitated in the form of oil-like droplets. […] Higher drug loads can be achieved by using the two lipids in combination with ethanol as additional solvent/excipient to fully solubilize the drug in the formulation.

[6] = test system: C. elegans; settings: in vivo; cited from earlier work
[7] = test system: mammalian cells; settings: cited from earlier work
[8] = test system: insulin resistant cells; settings: cited from earlier work
[9] = topical; cited from earlier work

Chain of Sir2 (P06700 whole entry): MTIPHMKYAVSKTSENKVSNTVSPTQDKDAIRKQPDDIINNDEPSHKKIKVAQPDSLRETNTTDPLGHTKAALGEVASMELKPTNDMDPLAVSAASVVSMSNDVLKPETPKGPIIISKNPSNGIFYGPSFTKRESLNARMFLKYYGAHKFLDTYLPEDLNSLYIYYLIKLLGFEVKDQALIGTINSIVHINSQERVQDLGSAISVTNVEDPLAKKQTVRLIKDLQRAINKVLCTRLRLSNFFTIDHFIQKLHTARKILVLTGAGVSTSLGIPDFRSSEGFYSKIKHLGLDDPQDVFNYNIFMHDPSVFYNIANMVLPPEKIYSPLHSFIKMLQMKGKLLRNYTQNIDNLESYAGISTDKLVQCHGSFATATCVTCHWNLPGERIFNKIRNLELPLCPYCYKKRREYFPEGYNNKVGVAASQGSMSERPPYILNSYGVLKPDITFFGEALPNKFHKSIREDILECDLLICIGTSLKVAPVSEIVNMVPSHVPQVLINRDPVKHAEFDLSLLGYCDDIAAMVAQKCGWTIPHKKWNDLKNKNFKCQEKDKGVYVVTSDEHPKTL

In the case of `O=C(/C=C/c1cccc(C(=O)NO)c1)NO` [CBHA, m-carboxy-cinnamic acid bishydroxamic acid], the “inhibition of HDAC (concentration level in words)” value (“inhibition of HDAC” below) [1] is listed as “micromolar concentration or lower”.

In the case of `C/C=C1\NC(=O)[C@H]2CSSCC/C=C/[C@H](CC(=O)N[C@H](C(C)C)C(=O)N2)OC(=O)[C@H](C(C)C)NC1=O` [Depsipeptide, depsipeptide], the “inhibition of HDAC” value [1] is given as “micromolar concentrations”.

For `[N]=O` [Nitric oxide], the “concentration that inhibits cytochrome oxidase (Complex IV)” value [2] is given as “about 1 micromolar”.

For `CC(/C=C/C(=O)NO)=C\[C@@H](C)C(=O)c1ccc(N(C)C)cc1` [TSA, trichostatin A], the “sensitivity of Sir2 to histone deacetylase inhibitors” value [3] is given as “insensitive” and the “inhibition of HDAC” value [1] is given as “potent inhibitor”.

In the case of `N=C(N)NN` [aminoguanidine], the “loss of retinal ganglion cells” value [4] is listed as “reduction in the loss of retinal ganglion cells”.

For `Oc1ccc(/C=C/c2cc(O)cc(O)c2)cc1` [resveratrol, 3,5,4′-trihydroxystilbene], the “precipitation after dilution with purified water” value [5] is listed as “precipitated in a fast manner”, the “fat accumulation in C. elegans” value [6] is listed as “prevent fat accumulation” and the “fat mobilization in C. elegans” value [6] is listed as “promotes fat mobilization”. The “adipogenesis in mammalian cells” value [7] was “inhibit adipogenesis”, the “fat mobilization in mammalian cells” value [7] was “stimulate fat mobilization” and the “insulin sensitivity in insulin resistant cells” value [8] was “at least partially restore insulin sensitivity”.

In the case of `CC(C)(C)NC[C@H](O)COc1nsnc1N1CCOCC1` [timolol], the “time for IOP to fall” value [9] is listed as 30 min and the “time of peak effects on IOP” value [9] is listed as 1 to 2 h.

In the case of depudecin, the “inhibition of HDAC” value [1] is given as “micromolar concentrations”.
